From PMC3756492 (Journal of medicinal chemistry, 2010)

How the values were obtained:
DAT [1] = test: HRRT PET imaging in an awake rhesus monkey; type: in vivo; conditions: HRRT PET images
DAT [2] = biological target: DAT (Macaca fascicularis, UniProt Q9GJT6); test: MicroPET imaging in anesthetized cynomolgus monkeys; type: in vivo; conditions: anesthetized cynomolgus monkey
Chain of DAT (Macaca fascicularis, UniProt Q9GJT6) (Q9GJT6 whole entry): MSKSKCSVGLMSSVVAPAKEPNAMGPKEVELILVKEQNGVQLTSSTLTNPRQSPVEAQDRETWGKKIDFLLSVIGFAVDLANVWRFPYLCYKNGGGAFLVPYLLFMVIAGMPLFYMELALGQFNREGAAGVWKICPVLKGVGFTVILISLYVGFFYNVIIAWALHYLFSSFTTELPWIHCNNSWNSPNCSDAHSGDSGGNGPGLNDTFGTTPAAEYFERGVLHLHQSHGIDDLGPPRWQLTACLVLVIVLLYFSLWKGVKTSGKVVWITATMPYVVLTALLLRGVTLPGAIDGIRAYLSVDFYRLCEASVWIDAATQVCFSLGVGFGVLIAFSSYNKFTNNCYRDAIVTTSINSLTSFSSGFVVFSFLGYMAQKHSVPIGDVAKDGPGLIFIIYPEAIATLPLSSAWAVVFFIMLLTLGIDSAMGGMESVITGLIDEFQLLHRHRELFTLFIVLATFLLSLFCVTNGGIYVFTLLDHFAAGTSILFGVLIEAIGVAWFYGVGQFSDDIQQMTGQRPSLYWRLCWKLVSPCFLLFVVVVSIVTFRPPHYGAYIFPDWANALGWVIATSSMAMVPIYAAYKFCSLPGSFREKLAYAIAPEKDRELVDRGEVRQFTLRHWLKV

COC(=O)C1C(c2ccc(F)cc2)CC2CCC1N2C/C=C/C[18F] (stereo not drawn) [[^18F]9, A-((E)-4-[^18F]fluorobut-2-en-1-yl)-2β-carbomethoxy-3β-(4′-fluorophenyl)nortropane]
Defluorination (visualization of the skull) (DAT [1]): some degree of defluorination
Displacement of radiotracer in chase study (DAT [2]; 19 (RTI-113•HCl) 0.3 mg/kg at 90 min post-injection): complete displacement
Time to peak uptake in the putamen (DAT [2]; microPET baseline): ≤ 20 min
Time to peak uptake in the substantia nigra (DAT [2]; microPET baseline): ≤ 10 min
Defluorination (radioactivity in the skull) (DAT [2]; microPET images): low degree of defluorination
